Measurements: patent US8987216B2, “Polysulfated glycosides and salts thereof” (Teva Hungary Pharmaceutical Marketing Private Limited …, priority 2004, dated 2015)
pIC50: −log10 of the molar value. Where a name gives a salt, the structure may show the parent alone. Read-outs that look alike come from different tables or passages of the source.

What was measured:
BN rats [1] = assay: Effect on the extent of perivascular oedema developed in asthmatic lung tissue; assay type: in vivo, Brown Norway (BN) rats; details: Control 55 ± 6, Challenge 209 ± 12
Procedure: Sensitized BN rats were treated intratracheally with varying (0.01-1.0 mg/kg) dose of compound described in example 4, two hours before antigenic challenge, using a similar protocol described in Model 1. Lungs were collected […] and were fixed in 8% phosphate buffered formaldehyde. Samples were then processed for histochemistry routinely. 5 μm thick sections were stained with periodic-acid-Schiff (PAS) reagents and were counterstained with haematoxylineosine. On the 5 μm sections, the area of the connective tissue around the vasculare was determined and expressed as a ratio of the area of the corresponding blood vessel itself.

BN-rats = assay: Effect of locally (intratracheally) administered polysulfated glycosides on airways' hyperresponsiveness ex vivo (tracheal contraction to acetylcholine after antigen challenge); assay type: in vivo, Brown Norway (BN) rats; details: Control 100 ± 0, Placebo 334 ± 68
Procedure: Brown Norway (BN) rats were actively sensitized to ovalbumin (OA) by a subcutaneous injection of 0.5 ml of OA/A1(OH)3 gel mixture (2 mg OA+10 g A1(OH)3/100 ml saline) on day 1 with subsequent subcutaneous injections (10 mg OA+10 g A1(OH)3/100 ml saline) given on days 14 and 21. On day 28, animals received the compound described in example 4 intratracheally (0.01; 0.1 or 1.0 mg/kg dose) 2 hours before antigen challenge. Antigen challenge was performed by inhalation of nebulised ovalbumin (1% antigen solution administered in a TSE inhalation system for 1 hour). Animals were sacrificed 48 hours post antigen challenge wherein the tracheas were removed to an organ bath. Dissected tracheas were allowed to equilibrate for 30 minutes before measuring tracheal spasmogenic response curves to acetylcholine (Ach).
As shown in Table 1 ovalbumin challenge of sensitized animals in this model caused a significant tracheal hyper-reactivity to acetylcholine, when the response to the spasmogenic agent was determined 48 h after antigen challenge.

IP-3 receptor = target: T1, IP-3 receptor (Rattus norvegicus, UniProt P29994); assay: IP-3 receptor antagonistic effect: inhibition of IP3 binding to its receptor in rat cerebellum membrane preparations
T1 construct: determined using rat cerebellum membrane preparations; from tissue; host or cells: rat cerebellum (microsomal membrane preparation)
T1 sequence (P29994 whole entry): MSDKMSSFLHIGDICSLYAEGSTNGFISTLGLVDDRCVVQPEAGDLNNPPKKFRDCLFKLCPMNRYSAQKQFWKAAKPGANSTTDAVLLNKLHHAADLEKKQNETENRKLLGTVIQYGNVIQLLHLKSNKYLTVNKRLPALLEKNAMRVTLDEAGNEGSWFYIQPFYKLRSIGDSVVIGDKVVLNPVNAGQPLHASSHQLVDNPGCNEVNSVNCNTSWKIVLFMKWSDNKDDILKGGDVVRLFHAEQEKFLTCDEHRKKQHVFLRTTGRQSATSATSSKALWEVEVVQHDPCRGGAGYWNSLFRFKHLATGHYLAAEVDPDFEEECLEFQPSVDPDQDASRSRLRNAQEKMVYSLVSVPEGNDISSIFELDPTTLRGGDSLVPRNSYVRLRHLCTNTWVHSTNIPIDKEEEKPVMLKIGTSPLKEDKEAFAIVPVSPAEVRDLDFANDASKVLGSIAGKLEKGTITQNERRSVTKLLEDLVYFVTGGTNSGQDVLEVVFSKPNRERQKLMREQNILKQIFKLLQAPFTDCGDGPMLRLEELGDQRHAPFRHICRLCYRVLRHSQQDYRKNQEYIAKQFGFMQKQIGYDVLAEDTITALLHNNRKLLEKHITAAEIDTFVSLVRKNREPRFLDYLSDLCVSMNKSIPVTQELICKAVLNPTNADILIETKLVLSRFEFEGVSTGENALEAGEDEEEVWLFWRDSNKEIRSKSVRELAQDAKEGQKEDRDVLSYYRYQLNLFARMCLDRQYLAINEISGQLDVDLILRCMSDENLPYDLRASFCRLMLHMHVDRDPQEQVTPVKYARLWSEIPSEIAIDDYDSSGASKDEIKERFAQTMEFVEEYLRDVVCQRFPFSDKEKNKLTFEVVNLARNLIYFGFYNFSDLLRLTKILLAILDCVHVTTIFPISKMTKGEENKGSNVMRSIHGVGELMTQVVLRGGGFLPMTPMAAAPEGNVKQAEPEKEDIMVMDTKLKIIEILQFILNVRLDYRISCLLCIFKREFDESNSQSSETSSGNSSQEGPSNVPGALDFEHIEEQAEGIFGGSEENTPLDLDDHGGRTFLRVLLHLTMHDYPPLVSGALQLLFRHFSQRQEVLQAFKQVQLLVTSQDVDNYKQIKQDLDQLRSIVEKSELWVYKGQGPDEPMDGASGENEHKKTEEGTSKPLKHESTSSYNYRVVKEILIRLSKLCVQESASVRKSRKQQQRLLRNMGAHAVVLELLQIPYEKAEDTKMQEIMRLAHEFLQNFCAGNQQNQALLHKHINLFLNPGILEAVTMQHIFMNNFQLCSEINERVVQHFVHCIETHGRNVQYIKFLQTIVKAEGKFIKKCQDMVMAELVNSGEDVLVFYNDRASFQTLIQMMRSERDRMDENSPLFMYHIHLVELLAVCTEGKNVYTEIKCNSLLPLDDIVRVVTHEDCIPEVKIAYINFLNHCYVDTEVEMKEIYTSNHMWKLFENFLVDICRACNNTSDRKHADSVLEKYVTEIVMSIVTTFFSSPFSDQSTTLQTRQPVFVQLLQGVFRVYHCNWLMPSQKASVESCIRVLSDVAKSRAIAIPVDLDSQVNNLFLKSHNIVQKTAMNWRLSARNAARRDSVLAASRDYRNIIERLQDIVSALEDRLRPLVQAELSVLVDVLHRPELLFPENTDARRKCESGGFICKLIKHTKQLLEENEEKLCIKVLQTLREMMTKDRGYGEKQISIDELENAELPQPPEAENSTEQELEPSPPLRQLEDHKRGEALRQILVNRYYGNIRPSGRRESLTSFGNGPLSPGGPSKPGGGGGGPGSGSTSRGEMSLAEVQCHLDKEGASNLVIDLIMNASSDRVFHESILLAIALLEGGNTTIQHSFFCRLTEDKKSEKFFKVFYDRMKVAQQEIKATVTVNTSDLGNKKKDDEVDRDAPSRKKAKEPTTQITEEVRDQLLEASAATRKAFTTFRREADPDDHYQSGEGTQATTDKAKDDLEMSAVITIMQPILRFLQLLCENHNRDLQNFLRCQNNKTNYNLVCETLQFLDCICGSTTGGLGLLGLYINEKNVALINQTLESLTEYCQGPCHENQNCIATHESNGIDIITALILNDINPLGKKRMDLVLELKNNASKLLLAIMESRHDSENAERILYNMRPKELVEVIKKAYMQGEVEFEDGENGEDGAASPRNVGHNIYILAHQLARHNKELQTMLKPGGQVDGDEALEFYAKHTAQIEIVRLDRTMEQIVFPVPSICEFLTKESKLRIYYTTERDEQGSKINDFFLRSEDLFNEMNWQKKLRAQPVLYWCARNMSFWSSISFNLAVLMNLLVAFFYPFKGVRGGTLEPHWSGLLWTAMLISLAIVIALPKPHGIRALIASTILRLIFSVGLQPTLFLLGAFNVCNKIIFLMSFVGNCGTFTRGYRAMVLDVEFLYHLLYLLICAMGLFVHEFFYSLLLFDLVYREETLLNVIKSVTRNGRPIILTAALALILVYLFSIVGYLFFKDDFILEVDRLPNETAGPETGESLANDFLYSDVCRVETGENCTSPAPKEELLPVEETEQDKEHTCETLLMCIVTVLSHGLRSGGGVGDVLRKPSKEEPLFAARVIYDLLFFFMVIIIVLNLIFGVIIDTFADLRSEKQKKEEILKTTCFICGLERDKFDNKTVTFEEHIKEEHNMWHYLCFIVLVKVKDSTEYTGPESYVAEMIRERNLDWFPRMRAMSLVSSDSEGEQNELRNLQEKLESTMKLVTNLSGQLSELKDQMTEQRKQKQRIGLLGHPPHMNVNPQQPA
Procedure: Glycosides of the present invention, depending on their chemical structure, inhibit the binding of inositol-1,4,5-trisphosphate (IP3) to its receptor in microsomal membrane preparations. As IP3 is a messenger molecule playing distinguished role in the activation of different cells, interfering with this function can explain the anti-asthmatic effect of these polysulfated glycosides.
The IP3 antagonist effect of the polysulfated glycosides were determined using rat cerebellum membrane preparations according to Worley et al. (JBC 262, 12132, 1987).

BN rats [2] = assay: Effect on the allergen stimulated mucus production of airways epithelial cells (PAS(+) cell count in lung sections); assay type: in vivo, Brown Norway (BN) rats; details: lungs 48 hours after challenge, Control 2.2 ± 0.9, Challenge 15.8 ± 2.8
Procedure: Sensitized BN rats were treated intratracheally with varying (0.01-1.0 mg/kg) dose of compound described in example 4, two hours before antigenic challenge, using a similar protocol described in Model 1. Lungs were collected 48 hours after challenge and were fixed in 8% phosphate buffered formaldehyde. Samples were then processed for histochemistry routinely. 5 μm thick sections were stained with periodic-acid-Schiff (PAS) reagents and were counterstained with haematoxylineosine. On the sections each epithelial cells of the airways were counted in the whole preparation at a magnification of 400×. The number of PAS(+) [mucus producing] epithelial cells was expressed as the ratio of the total number of epithelial cells.
As it is shown in Table 2, allergen challenge stimulates the mucus production of airways epithelial cells (control vs. challenge).

[3] = 0.01 mg/kg intratracheally two hours before antigenic challenge
[4] = 0.1 mg/kg intratracheally two hours before antigenic challenge

| SMILES | Oedema: area of oedema relative to area of vasculature (average ± SEM) (BN rats [1]; [3]) | Oedema: area of oedema relative to area of vasculature (average ± SEM) (BN rats [1]; [4]) | MAX: Contraction at maximal Ach concentration relative to control (mean ± SEM) (BN-rats; 0.01 mg/kg intratracheally 2 hours before ovalbumin challenge) | MAX: Contraction at maximal Ach concentration relative to control (mean ± SEM) (BN-rats; 1.0 mg/kg intratracheally 2 hours before ovalbumin challenge) | pIC50 (IP-3 receptor; read-out: Average IC50) | IC50 (IP-3 receptor; read-out: IC 50 (μg/ml) Average ± SEM (n) (converted)) [nM] | number of PAS(+) cells as percent of total number of cells (average ± SEM) (BN rats [2]; [3]) [%] | number of PAS(+) cells as percent of total number of cells (average ± SEM) (BN rats [2]; [4]) [%] | melting point [°C] |
| --- | --- | --- | --- | --- | --- | --- | --- | --- | --- |
| O=S(=O)(O)OC[C@H](OS(=O)(=O)O)[C@@H](O[C@@H]1O[C@H](COS(=O)(=O)O)[C@@H](OS(=O)(=O)O)[C@H](OS(=O)(=O)O)[C@H]1OS(=O)(=O)O)[C@H](OS(=O)(=O)O)[C@@H](COS(=O)(=O)O)OS(=O)(=O)O [Example 4, 1,2,4,5,6-penta-O-sulfato-3-O-(2,3,4,6-tetra-β-sulfato-β-D-glucopyranosyl)-D-glucitol nona potassium salt] | 113 ± 7 | 106 ± 8 | 134 ± 26 | 116 ± 37 | 6.79 | 216 | 15.0 ± 2.7 | 6.3 ± 1.5 | – |
| O=S(=O)(O)OC[C@H](OS(=O)(=O)O)[C@@H](O[C@@H]1O[C@H](COS(=O)(=O)O)[C@@H](OS(=O)(=O)O)[C@H](OS(=O)(=O)O)[C@H]1OS(=O)(=O)O)[C@H](OS(=O)(=O)O)[C@@H](COS(=O)(=O)O)OS(=O)(=O)O (as salt: potassium) [Example 4, 1,2,4,5,6-penta-O-sulfato-3-O-(2,3,4,6-tetra-β-sulfato-β-D-glucopyranosyl)-D-glucitol nona potassium salt] | – | – | – | – | – | – | – | – | > 220 |
